Data set [1] can be described thus: in vitro cumulative release from low dose imatinib stents (PLGA 85/15 matrix, base and cap). Format: physicochemical. Conditions: about 160 micrograms per 16 mm stent, average of three stents. The protocol: The imatinib free-base (slow release) and the imatinib meslate salt (Gleevec) were loaded into holes in stents in a polymer matrix of PLGA 85/15 with a PLGA 85/15 base and cap and the release from the stents was recorded in FIG. 1. A solvent such as NMP or anisol was used to deposit the drug/polymer compositions and then evaporated. The releases shown in FIG. 1 are the average of three stents each. Methods and systems for depositing polymers and drugs within holes in stents are described further in WO 2004/026182 which is incorporated herein by reference.
The dosage for this example was about 160 micrograms normalized for a 16 mm long stent. The free base and salt forms where then combined in the ratios of 86:14, 66:34, and 46:54 and it was shown that the rate of the release (solubility of the drug) is proportional to the percentage of free base or salt. Thus, the selection of a percentage of free base and salt can be used to provide a selected drug release kinetic.
The addition of the free-base form allows the release to be extended past 48 hours to about 72 hours for a formulation of 46% free base and to about 120 hours for a formulation of about 66% free base. While a formulation with 86% free base continues to release imatinib in-vitro at 168 hours and beyond.

Data set [2] is described as follows: effect of counter ions on in vitro release of imatinib from stents. In kind it is physicochemical. Conditions: total drug load 150 μg to 200 μg; PLA-PLC base and cap, PLGA matrix. The protocol:
FIG. 4 illustrates the effect of several counter ions on the in vitro release of a drug, in this example imatinib. Total drug load was 150 μg to 200 μg. PLA-PLC was used in the base and cap while the matrix containing the drug was PLGA as in Examples 1 and 2.

Structures are written as SMILES. Counter-ions that a name gives are not always drawn.

The values that follow come from patent publication US8673336B2, “Composition, system, and method for modulating release kinetics in implantable drug delivery devices by modifying drug solubility” (Innovational Holdings LLC, priority 2005, dated 2014).

Regarding `Cc1ccc(NC(=O)c2ccc(CN3CCN(C)CC3)cc2)cc1Nc1nccc(-c2cccnc2)n1` [free base, imatinib], the “rate of release from stents (FIG. 1)” value in data set [1] was “slowest release”.

On to `Cc1ccc(NC(=O)c2ccc(CN3CCN(C)CC3)cc2)cc1Nc1nccc(-c2cccnc2)n1` [imatinib mesylate], for which the “time until release is essentially complete / extent of release duration (FIG. 1)” value in data set [1] was “about 48 hours”. In addition, in data set [1] (listed as salt), the “rate of release from stents (FIG. 1)” value is recorded as “fastest release”. For the same molecule, in data set [2], the “cumulative in vitro release (FIG. 4)” value was “significantly higher cumulative release, relatively quickly, than imatinib salicylate”.

As for `Cc1ccc(NC(=O)c2ccc(CN3CCN(C)CC3)cc2)cc1Nc1nccc(-c2cccnc2)n1.O=C(O)c1ccccc1O` [imatinib salicylate], in data set [2], the “cumulative in vitro release (FIG. 4)” value is on record as “significantly higher that that of imatinib”.
